Where “and” joins values, the source holds several entries; their conditions need not be identical. Equal values may be shown once. Read-outs that look alike come from different tables or passages of the source.
Key:
human CB1 receptor [1] = target: T1, human CB1 receptor (Homo sapiens, UniProt P21554); experiment: biochemical
Procedure: Ten compound concentrations equally spaced on a log scale (10^–3 to 10^–9 M) were incubated in triplicate with membrane preparations from CHO-K1 cells expressing the human CB1 receptor (5 μg per well) (Perkin Elmer, cat. no. ES-110-M400UA) in an assay buffer containing 50 mM Tris-HCl, pH = 7.4, 1 mM EGTA, 3 mM MgCl2, 100 mM NaCl and 30 μM GDP) in the presence of 0.08 nM [^35S]GTPγS (specific activity: 1250 Ci/mmole, Perkin Elmer). Non-specific binding was determined with 100 μM of unlabeled GTPγS. […] The final DMSO concentration in the assay was 5%. The reaction mixture was incubated for 90 min. at 30°C . Next, the samples were deposited under vacuum with the FilterMate Harvester® (Perkin Elmer, USA) onto Unifilter® GF/B Plates (Perkin Elmer, USA) presoaked with wash buffer (50 mM Tris-HCl, pH = 7.4). The samples were then rapidly washed with 2 ml of wash buffer. Filter plates were dried for 30 min. at 50 °C and 40 μL of MicroScint PS (Perkin Elmer, USA) scintillation fluid was added to each well. Radioactivity was counted in a Trilux MicroBeta^2 counter (Perkin Elmer, USA). Data were analyzed with GraphPad Prism 5.0 software. Curves were fitted with three-parameter non-linear regression model.

human CB1 receptor [2] = target: T1, human CB1 receptor; format: biochemical; conditions: in words
[3] = parameters: method as in MedChemExpress product data sheet; conditions: ref MedChemExpress product data sheet, cited from earlier work
human CB1 receptor [4] = target: T1, human CB1 receptor; experiment: biochemical; format: binding; parameters: purchased Merck HTS019M; host or cells: Chem-1 cells
Source text: Compounds selected for the in vitro binding assay from the first iteration of VS were purchased via MolPort, SIA, Riga, Latvia and Biopurify Phytochemicals Ltd., Chengdu, China. Compounds from the second iteration were purchased from MolPort, SIA, Riga, Latvia and Chemspace, SIA, Riga, Latvia (Supporting Information S3). […] Membranes from cells overexpressing the human CB1 receptor (ChemiScreen CB1 Cannabinoid Receptor Membrane Preparation, cat. no. HTS019M) as well as MgCl2, CaCl2, Trizma Base, NaCl, polyethylenimine (PEI) and dimethyl sulfoxide (DMSO) were purchased from Merck (USA). Bovine serum albumin (BSA) was obtained from Pol-Aura (Poland).
Compounds were dissolved in 50% DMSO and added to the reaction mixture at 10 concentrations equally spaced on a log scale (10^–10 to 10^–4.5 M). The final DMSO concentration was 5%. […] The reaction mixture (500 μL) was incubated for 1.5 h at 30°C . Before harvesting, Whatman GF/B Filter Paper (Brandel, USA) was presoaked with 0.33% PEI buffer for 30 min. and then washed with 2 ml of 50 mM Tris-HCl buffer (pH = 7.4) and 0.5% BSA to minimize non-specific binding. The reaction was terminated by depositing the samples onto GF/B filter paper with the Brandel M-24 Cell Harvester (Brandel, USA). Samples were then rapidly washed 3 times with 2 ml of ice-cold wash buffer (50 mM Tris-HCl pH 7.4, 500 mM NaCl) to separate the bound radioligand from free. Filters were then air-dried for 1 h at 60°C . After drying, filter discs were placed on a flexible 24-well plate and 500 μL of EcoScint-20 scintillant was added to each well. Plates were counted (2 min. per well) in a Trilux MicroBeta^2 2450 scintillation counter (Perkin Elmer, USA). Data were analyzed with GraphPad Prism 5.0 software.[89]

CB1 = conditions: known CB1 ligands; ref 55 (rimonabant), 56 (nabilone), 17 (bazedoxifene); cited from earlier work
[5] = CB1 inhibition IC50 (μM, 95% CI)
[6] = CHO-K1 membranes, WIN 55,212-2 (3 μM) as stimulating ligand, read-out: CB1 inhibition pIC50 (converted)
[7] = [3H]CP-55,940 displacement, membranes of Chem-1 cells expressing human CB1, read-out: pKi ± SEM (converted)
[8] = read-out: CB1 inhibition IC50 (μM, 95% CI)

T1 sequence (P21554 whole entry): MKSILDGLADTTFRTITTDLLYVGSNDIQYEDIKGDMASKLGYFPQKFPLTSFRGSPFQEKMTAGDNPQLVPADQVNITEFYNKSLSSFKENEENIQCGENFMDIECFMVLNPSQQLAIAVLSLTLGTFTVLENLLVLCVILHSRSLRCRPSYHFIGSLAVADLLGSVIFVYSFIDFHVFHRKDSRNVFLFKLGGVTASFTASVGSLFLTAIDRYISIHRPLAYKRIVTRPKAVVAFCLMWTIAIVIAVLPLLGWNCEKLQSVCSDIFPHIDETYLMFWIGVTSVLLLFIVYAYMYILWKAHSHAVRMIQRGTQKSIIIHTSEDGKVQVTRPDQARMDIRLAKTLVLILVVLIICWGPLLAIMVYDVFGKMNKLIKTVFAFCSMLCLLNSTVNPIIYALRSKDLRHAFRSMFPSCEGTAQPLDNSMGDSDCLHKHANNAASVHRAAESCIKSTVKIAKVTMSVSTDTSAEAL

In the case of CC(C)OC(=O)CCC/C=C\C[C@@H]1[C@@H](/C=C/[C@@H](O)COc2cccc(C(F)(F)F)c2)[C@H](O)C[C@@H]1O [Compound 9, travoprost], the IC50 (human CB1 receptor [1]; [5]) is reported as 232 µM, the IC50 (human CB1 receptor [1]; [6]) is reported as 229 µM and the intrinsic activity (human CB1 receptor [2]) is reported as “antagonists”. The Solubility ([3]; 10% DMSO >> 40% PEG300 >> 5% Tween-80 >> 45% saline) was ≥ 2.08 mg/mL and ≥ 4.16 mM, the Solubility ([3]; 10% DMSO >> 90% (20% SBE-β-CD in saline)) was ≥ 2.08 mg/mL and ≥ 4.16 mM and the Solubility ([3]; 10% DMSO >> 90% corn oil) was ≥ 2.08 mg/mL and ≥ 4.16 mM. The “Solubility in DMSO” value ([3]; in vitro) was ≥ 41.67 mg/mL and ≥ 83.25 mM, the Ki (human CB1 receptor [4]; Ki (μM, 95% CI)) was 3.6 µM and the Ki (human CB1 receptor [4]; [7]) was 3.98 µM.
In the case of Cc1c(-c2ccc(O)cc2)n(Cc2ccc(OCCN3CCCCCC3)cc2)c2ccc(O)cc12 [bazedoxifene], the pKi (CB1) is given as 6.1[17].
For OCCN1CCN(CC/C=C2/c3ccccc3Sc3ccc(C(F)(F)F)cc32)CC1 [Compound 33, Flupentixol], the Solubility ([3]; 10% DMSO >> 40% PEG300 >> 5% Tween-80 >> 45% saline, listed as Flupentixol dihydrochloride) is given as ≥ 2.5 mg/mL and ≥ 4.93 mM, the Solubility ([3]; 10% DMSO >> 90% (20% SBE-β-CD in saline), listed as Flupentixol dihydrochloride) is given as ≥ 2.5 mg/mL and ≥ 4.93 mM and the Solubility ([3]; 10% DMSO >> 90% corn oil, listed as Flupentixol dihydrochloride) is given as ≥ 4.93 mM and ≥ 2.5 mg/mL. For the same compound, the “Solubility in H2O” value ([3]; in vitro, need ultrasonic, listed as Flupentixol dihydrochloride) was 100 mg/mL and 197.07 mM, the “Solubility in DMSO” value ([3]; in vitro, listed as Flupentixol dihydrochloride) was 33.33 mg/mL and 65.68 mM and the “pKi ± SEM” value (human CB1 receptor [4]; [3H]CP-55,940 displacement, membranes of Chem-1 cells expressing human CB1) was 4.27 ± 0.04. The Ki (human CB1 receptor [4]; read-out: Ki (μM, 95% CI)) was 53 µM.
For CCCCCCC(C)(C)c1cc(O)c2c(c1)OC(C)(C)C1CCC(=O)CC21 (stereo not drawn) [nabilone], the pKi (CB1) is listed as 8.7[56].
For COc1cc(O)c2c(=O)cc(-c3ccc(OC)c(-c4c(O)cc(O)c5c(=O)cc(-c6ccc(O)cc6)oc45)c3)oc2c1 [Compound 15, ginkgetin], the IC50 (human CB1 receptor [1]; [5]) was 63 µM, the intrinsic activity (human CB1 receptor [2]) was “antagonists” and the Ki (human CB1 receptor [4]; Ki (μM, 95% CI)) was 8.6 µM. For the same compound, the Ki (human CB1 receptor [4]; [7]) was 8.71 µM.
For COc1ccc([C@@H](CC(=O)NCc2cccc3[nH]ccc23)c2cc3c(cc2O)OCO3)cc1 [Compound 32], the IC50 (human CB1 receptor [1]; [6]) was 33.1 µM, the IC50 (human CB1 receptor [1]; [8]) was 40 µM and the intrinsic activity (human CB1 receptor [2]) was “antagonists”. It also gave a Ki (human CB1 receptor [4]; Ki (μM, 95% CI)) of 6.8 µM and a Ki (human CB1 receptor [4]; [7]) of 6.31 µM.
In the case of COc1cc(-c2c3cn[nH]c3nc3c2oc2c(O)c(O)ccc23)ccc1OCc1ccc(C(C)C)cc1 [Compound 30], the IC50 (human CB1 receptor [1]; [6]) is reported as 2.09 µM, the Emax (human CB1 receptor [1]; CHO-K1 membranes, read-out: CB1 stimulation Emax (%)) is reported as 126 ± 5% and the EC50 (human CB1 receptor [1]; CHO-K1 membranes, read-out: CB1 stimulation pEC50 (converted)) is reported as 0.417 µM. For the same compound, the intrinsic activity (human CB1 receptor [2]) was “mixed CB1 partial agonist/antagonist”, the Ki (human CB1 receptor [4]; Ki (μM, 95% CI)) was 0.8 µM and the Ki (human CB1 receptor [4]; [7]) was 0.851 µM.
With COc1ccc(-c2cc(-c3ccccc3)cc(-c3ccccc3O)n2)c(OC)c1 [Compound 38] the IC50 (human CB1 receptor [1]; [8]) was 140 µM, the intrinsic activity (human CB1 receptor [2]) was “antagonists” and the Ki (human CB1 receptor [4]; [7]) was 2.51 µM.
For COc1cccc2c1ccn2CCNC(=O)[C@H](Cc1cn(C)c2ccccc12)NC(=O)OC(C)(C)C [Compound 43], the IC50 (human CB1 receptor [1]; [6]) was 1.86 µM, the intrinsic activity (human CB1 receptor [2]) was “antagonists” and the Ki (human CB1 receptor [4]; Ki (μM, 95% CI)) was 6.6 µM.
In the case of COc1ccccc1C(CCNC(C)c1ccc(Cl)cc1)c1ccc(OC(C)C)cc1 (stereo not drawn) [Compound 34], the IC50 (human CB1 receptor [1]; [6]) is reported as 3.72 µM, the intrinsic activity (human CB1 receptor [2]) is reported as “antagonists” and the Ki (human CB1 receptor [4]; [7]) is reported as 2.69 µM.

— PMC9585589 (ACS Chemical Neuroscience, 2022)
